Laboratory results published in ChEMBL document CHEMBL4680348, “1,2,4-Thiadiazole acyclic nucleoside phosphonates as inhibitors of cysteine dependent enzymes cathepsin K and GSK-3β” (Bioorg Med Chem, 2021).

What was measured:
[1] = test system: HeLa S3; test: Cytotoxicity against human HeLa S3 cells assessed as cell viability at 10 uM incubated for 72 hrs by CellTiter-Glo luminescence based assay; type: functional; settings: read-out: Activity
[2] = test system: HeLa S3; test: Cytotoxicity against human HeLa S3 cells assessed as cell viability at 100 uM incubated for 72 hrs by CellTiter-Glo luminescence based assay; type: functional; settings: read-out: Activity
[3] = test system: SH-SY5Y; test: Cytotoxicity against human SH-SY5Y cells assessed as cell viability at 10 uM incubated for 72 hrs by CellTiter-Glo luminescence based assay; type: functional; settings: read-out: Activity
[4] = molecular target: T1, Cathepsin K (Homo sapiens) (UniProt P43235); test: Inhibition of recombinant human Cathepsin K expressed in Pichia pastoris X-33 assessed as residual activity at 10 uM using Z-Gly-Pro-Arg-AMC as substrate preincubated for 10 mins followed by substrate addition measured after 30 mins by fluorescence based microplate reader assay; settings: time 40.0 min
T1 sequence (whole entry): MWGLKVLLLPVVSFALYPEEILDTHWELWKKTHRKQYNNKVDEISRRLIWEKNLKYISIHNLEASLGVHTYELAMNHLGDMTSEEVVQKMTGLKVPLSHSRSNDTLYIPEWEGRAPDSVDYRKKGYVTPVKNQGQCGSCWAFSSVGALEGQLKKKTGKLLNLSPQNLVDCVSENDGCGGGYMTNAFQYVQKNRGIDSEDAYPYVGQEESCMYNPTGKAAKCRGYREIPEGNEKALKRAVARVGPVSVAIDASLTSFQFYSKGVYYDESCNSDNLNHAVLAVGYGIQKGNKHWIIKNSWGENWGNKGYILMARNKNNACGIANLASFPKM

[5] = test system: CCRF-CEM; test: Cytotoxicity against human CCRF-CEM cells assessed as cell viability at 100 uM incubated for 72 hrs by CellTiter-Glo luminescence based assay; type: functional; settings: read-out: Activity
[6] = test system: HL-60; test: Cytotoxicity against human HL-60 cells assessed as cell viability at 100 uM incubated for 72 hrs by CellTiter-Glo luminescence based assay; type: functional; settings: read-out: Activity
[7] = test system: SH-SY5Y; test: Cytotoxicity against human SH-SY5Y cells assessed as cell viability at 100 uM incubated for 72 hrs by CellTiter-Glo luminescence based assay; type: functional; settings: read-out: Activity
[8] = test system: CCRF-CEM; test: Cytotoxicity against human CCRF-CEM cells assessed as cell viability at 10 uM incubated for 72 hrs by CellTiter-Glo luminescence based assay; type: functional; settings: read-out: Activity
[9] = test system: HL-60; test: Cytotoxicity against human HL-60 cells assessed as cell viability at 10 uM incubated for 72 hrs by CellTiter-Glo luminescence based assay; type: functional; settings: read-out: Activity
[10] = test system: HepG2; test: Cytotoxicity against human HepG2 cells assessed as cell viability at 10 uM incubated for 72 hrs by CellTiter-Glo luminescence based assay; type: functional; settings: read-out: Activity
[11] = molecular target: Glycogen synthase kinase-3 beta (Homo sapiens, UniProt P49841); test: Inhibition of human recombinant GSK3beta using GSK3 peptide as substrate preincubated for 15 mins followed by ATP addition and measured after 90 mins by ADP-Glo kinase assay
[12] = Cytotoxicity against human NHDF cells assessed as cell viability at 100 uM incubated for 72 hrs by CellTiter-Glo luminescence based assay; settings: read-out: Activity
[13] = Cytotoxicity against human NHDF cells assessed as cell viability at 10 uM incubated for 72 hrs by CellTiter-Glo luminescence based assay; settings: read-out: Activity
[14] = test system: HepG2; test: Cytotoxicity against human HepG2 cells assessed as cell viability at 100 uM incubated for 72 hrs by CellTiter-Glo luminescence based assay; type: functional; settings: read-out: Activity

Chain of Glycogen synthase kinase-3 beta (P49841 whole entry): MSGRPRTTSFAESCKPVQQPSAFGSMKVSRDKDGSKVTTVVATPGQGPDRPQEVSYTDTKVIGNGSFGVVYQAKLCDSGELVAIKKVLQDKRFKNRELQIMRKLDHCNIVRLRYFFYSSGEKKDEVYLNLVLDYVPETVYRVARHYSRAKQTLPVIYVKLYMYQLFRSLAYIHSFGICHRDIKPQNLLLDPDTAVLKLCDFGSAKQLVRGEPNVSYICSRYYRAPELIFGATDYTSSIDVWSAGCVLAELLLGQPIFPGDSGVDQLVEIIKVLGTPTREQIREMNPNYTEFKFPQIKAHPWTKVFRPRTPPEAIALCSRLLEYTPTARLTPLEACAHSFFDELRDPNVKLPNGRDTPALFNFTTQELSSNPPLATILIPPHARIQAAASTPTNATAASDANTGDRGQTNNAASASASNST

Structure (SMILES)	viability at 10 µM [1] [%]	viability at 100 µM [2] [%]	viability at 10 µM [3] [%]	Activity [4] [%]	viability at 100 µM [5] [%]	viability at 100 µM [6] [%]	viability at 100 µM [7] [%]	viability at 10 µM [8] [%]	viability at 10 µM [9] [%]	viability at 10 µM [10] [%]	IC50 [11] [µM]	viability at 72 h, 100 µM [12] [%]	viability at 72 h, 10 µM [13] [%]	viability at 100 µM [14] [%]
CC(C)OP(=O)(COCCn1sc(NC(=O)c2ccccc2)nc1=O)OC(C)C	101	100	104	80.6	94	115	101	100	104	103	> 10	101	103	101
CCOC(=O)Nc1nc(=O)n(CCOCP(=O)(OC(C)C)OC(C)C)s1	100	101	105	86.8	98	111	104	92	102	104	> 10	98	101	100
CCOC(=O)Nc1nc(=O)n(C[C@@H](CO)OCP(=O)(O)O)s1	97	94	100	97.5	114	99	99	94	95	99	> 10	99	101	89
O=C(Nc1nc(=O)n(C[C@@H](CO)OCP(=O)(O)O)s1)c1ccccc1	97	101	101	92.3	61	106	103	72	103	101	> 10	98	105	100
O=C(Nc1nc(=O)n(C[C@@H](CO)OCP(=O)(O)O)s1)OCC1c2ccccc2-c2ccccc21	98	99	99	85.5	119	100	93	88	93	106	> 10	95	98	88
CC(=O)Nc1nc(=O)[nH]s1	97	102	102	76.6	102	108	99	104	105	103	> 10	105	99	88
CC(C)OP(=O)(CO[C@H](CO)Cn1sc(NC(=O)c2ccccc2)nc1=O)OC(C)C	97	105	100	92.9	97	118	97	86	106	109	> 10	104	103	99
CN(C)/C=N/c1nc(=O)[nH]s1	97	112	100	67	84	105	75	122	102	97	> 10	107	105	85
Cc1cnc(-c2cnc(NCCNc3ccc(C#N)cn3)nc2-c2ccc(Cl)cc2Cl)[nH]1 [LADUVIGLUSIB]	67		77					28	119	86			53	
O=C(Nc1nc(=O)n(CCOCP(=O)(O)O)s1)c1ccccc1	101	101	104	90.3	100	113	105	98	102	100	> 10	102	103	100
CCOC(=O)Nc1nc(=O)n(C[C@@H](CO)OCP(=O)(OC(C)C)OC(C)C)s1	90	87	104	83.4	45	101	104	67	97	101	> 10	100	104	93
O=C(Nc1nc(=O)n(CCOCP(=O)(O)O)s1)OCC1c2ccccc2-c2ccccc21	97	102	102	67	90	106	99	85	102	105	> 10	84	93	103
O=C(Nc1nc(=O)[nH]s1)c1ccccc1	99	101	103	85	96	110	90	102	101	99	> 10	100	104	77
O=c1sn(-c2cccc3ccccc23)c(=O)n1Cc1ccccc1 [TIDEGLUSIB]	69		80					30	34	92			57	
CC(C)OP(=O)(COCCOc1nsc(N)n1)OC(C)C	97	98	98	78.3	103	108	55	114	103	100	> 10	114	104	99
Nc1nc(OCCOCP(=O)(O)O)ns1	101	102	101	90	112	100	99	113	103	97	> 10	96	105	93
CC(C)OP(=O)(COCCOc1nsc(/N=C/N(C)C)n1)OC(C)C	101	89	101	52.9	93	98	87	106	97	99	> 10	99	101	90
